Measurements: ChEMBL document CHEMBL4610122, “Synthesis and Structure-Activity Relationships of DCLK1 Kinase Inhibitors Based on a 5,11-Dihydro-6H-benzo[e]pyrimido[5,4-b][1,4]diazepin-6-one Scaffold” (J Med Chem, 2020)
Activity calls are given as the source filed them. No cut-off for these calls is given here.

What was measured:
[1] = target: Leucine-rich repeat serine/threonine-protein kinase 2 (Homo sapiens, UniProt Q5S007); test: Inhibition of recombinant human GST-tagged LRRK2 catalytic domain (970 to 2527 residues) expressed in baculovirus expression system using LRRKtide as substrate measured after 1 hr by Alexa fluor-647 ADP tracer-based ADAPTA assay
[2] = target: Bromodomain-containing protein 4 (Homo sapiens, UniProt O60885); test: Inhibition of BRD4 bromodomain 1 (unknown origin) by AlphaScreen displacement assay
[3] = target: T1, Serine/threonine-protein kinase DCLK1 (Homo sapiens, UniProt O15075); test: Inhibition of recombinant human N-terminal His6-tagged DCLK1 (G351 to H689 residues) expressed in Escherichia coli BL21 DE3 using 5-FAM-KKLRRTLSVA-COOH as substrate measured after 2 hrs by mobility shift assay
T1 sequence (O15075 whole entry): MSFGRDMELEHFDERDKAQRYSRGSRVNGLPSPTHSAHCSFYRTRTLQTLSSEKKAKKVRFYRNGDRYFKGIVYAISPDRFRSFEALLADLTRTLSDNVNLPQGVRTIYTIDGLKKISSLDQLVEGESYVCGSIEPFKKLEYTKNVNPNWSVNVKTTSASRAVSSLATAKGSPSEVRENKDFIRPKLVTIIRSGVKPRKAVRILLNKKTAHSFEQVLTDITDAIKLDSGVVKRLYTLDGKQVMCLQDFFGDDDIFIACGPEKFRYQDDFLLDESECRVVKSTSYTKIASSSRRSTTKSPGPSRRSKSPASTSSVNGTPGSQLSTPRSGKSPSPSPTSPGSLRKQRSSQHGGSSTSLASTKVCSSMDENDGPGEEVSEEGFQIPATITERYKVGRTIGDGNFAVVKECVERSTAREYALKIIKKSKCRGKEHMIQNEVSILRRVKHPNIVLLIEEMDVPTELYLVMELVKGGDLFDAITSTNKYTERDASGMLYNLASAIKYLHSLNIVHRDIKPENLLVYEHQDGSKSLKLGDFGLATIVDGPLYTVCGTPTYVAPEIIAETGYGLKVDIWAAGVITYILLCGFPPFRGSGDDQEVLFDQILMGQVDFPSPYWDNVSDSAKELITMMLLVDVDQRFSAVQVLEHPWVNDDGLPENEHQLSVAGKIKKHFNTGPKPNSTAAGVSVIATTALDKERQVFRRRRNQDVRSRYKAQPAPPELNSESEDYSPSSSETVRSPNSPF

[4] = target: Mitogen-activated protein kinase 7 (Homo sapiens, UniProt Q13164); test: Inhibition of ERK5 in human HeLa cells assessed as reduction in EGF-induced ERK5 autophosphorylation pretreated for 1 hr followed by EGF stimulation and measured after 17 mins by […]; assay type: cell-based
Homo sapiens [5] = species on record: Homo sapiens; test: Cytotoxicity against human Panc286 cell organoids assessed as reduction in cell viability up to 1 uM measured after 4 days; assay type: functional
[6] = Cytotoxicity against human Panc281 cell organoids assessed as reduction in cell viability at 1 uM measured after 12 days relative to control; assay type: functional
[7] = AUC in mouse; assay type: ADME, organism-based; conditions: in vivo
Homo sapiens [8] = species on record: Homo sapiens; test: Cytotoxicity against human Panc281 cell organoids assessed as reduction in cell viability up to 1 uM measured after 4 days; assay type: functional
[9] = Half life in mouse; assay type: ADME, organism-based; conditions: in vivo
[10] = Cytotoxicity against human Panc286 cell organoids assessed as reduction in cell viability at 1 uM measured after 12 days relative to control; assay type: functional
[11] = Clearance in mouse; assay type: ADME, organism-based; conditions: in vivo

Mitogen-activated protein kinase 7, sequence (Q13164 whole entry): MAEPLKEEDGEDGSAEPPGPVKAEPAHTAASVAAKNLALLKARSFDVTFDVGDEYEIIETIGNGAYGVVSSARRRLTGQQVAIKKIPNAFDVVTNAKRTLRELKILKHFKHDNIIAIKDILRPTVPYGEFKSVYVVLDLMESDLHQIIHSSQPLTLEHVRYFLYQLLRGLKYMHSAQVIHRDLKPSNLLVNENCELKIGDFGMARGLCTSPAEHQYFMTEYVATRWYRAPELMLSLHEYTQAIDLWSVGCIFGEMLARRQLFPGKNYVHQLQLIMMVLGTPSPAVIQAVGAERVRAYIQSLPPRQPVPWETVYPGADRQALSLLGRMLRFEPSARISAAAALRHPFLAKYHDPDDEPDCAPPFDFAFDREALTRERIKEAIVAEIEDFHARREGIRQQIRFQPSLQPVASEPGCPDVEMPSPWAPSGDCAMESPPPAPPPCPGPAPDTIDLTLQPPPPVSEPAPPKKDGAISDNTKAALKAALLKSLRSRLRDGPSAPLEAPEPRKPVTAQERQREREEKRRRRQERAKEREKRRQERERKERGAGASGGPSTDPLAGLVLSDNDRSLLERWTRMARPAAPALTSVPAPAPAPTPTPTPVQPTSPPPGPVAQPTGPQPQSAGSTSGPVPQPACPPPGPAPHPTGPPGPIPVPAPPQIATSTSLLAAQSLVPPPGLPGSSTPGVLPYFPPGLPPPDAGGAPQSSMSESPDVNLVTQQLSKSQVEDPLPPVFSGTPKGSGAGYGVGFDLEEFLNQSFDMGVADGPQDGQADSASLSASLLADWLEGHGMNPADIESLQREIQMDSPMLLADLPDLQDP
Leucine-rich repeat serine/threonine-protein kinase 2, sequence (Q5S007 whole entry, the tested form may be a part): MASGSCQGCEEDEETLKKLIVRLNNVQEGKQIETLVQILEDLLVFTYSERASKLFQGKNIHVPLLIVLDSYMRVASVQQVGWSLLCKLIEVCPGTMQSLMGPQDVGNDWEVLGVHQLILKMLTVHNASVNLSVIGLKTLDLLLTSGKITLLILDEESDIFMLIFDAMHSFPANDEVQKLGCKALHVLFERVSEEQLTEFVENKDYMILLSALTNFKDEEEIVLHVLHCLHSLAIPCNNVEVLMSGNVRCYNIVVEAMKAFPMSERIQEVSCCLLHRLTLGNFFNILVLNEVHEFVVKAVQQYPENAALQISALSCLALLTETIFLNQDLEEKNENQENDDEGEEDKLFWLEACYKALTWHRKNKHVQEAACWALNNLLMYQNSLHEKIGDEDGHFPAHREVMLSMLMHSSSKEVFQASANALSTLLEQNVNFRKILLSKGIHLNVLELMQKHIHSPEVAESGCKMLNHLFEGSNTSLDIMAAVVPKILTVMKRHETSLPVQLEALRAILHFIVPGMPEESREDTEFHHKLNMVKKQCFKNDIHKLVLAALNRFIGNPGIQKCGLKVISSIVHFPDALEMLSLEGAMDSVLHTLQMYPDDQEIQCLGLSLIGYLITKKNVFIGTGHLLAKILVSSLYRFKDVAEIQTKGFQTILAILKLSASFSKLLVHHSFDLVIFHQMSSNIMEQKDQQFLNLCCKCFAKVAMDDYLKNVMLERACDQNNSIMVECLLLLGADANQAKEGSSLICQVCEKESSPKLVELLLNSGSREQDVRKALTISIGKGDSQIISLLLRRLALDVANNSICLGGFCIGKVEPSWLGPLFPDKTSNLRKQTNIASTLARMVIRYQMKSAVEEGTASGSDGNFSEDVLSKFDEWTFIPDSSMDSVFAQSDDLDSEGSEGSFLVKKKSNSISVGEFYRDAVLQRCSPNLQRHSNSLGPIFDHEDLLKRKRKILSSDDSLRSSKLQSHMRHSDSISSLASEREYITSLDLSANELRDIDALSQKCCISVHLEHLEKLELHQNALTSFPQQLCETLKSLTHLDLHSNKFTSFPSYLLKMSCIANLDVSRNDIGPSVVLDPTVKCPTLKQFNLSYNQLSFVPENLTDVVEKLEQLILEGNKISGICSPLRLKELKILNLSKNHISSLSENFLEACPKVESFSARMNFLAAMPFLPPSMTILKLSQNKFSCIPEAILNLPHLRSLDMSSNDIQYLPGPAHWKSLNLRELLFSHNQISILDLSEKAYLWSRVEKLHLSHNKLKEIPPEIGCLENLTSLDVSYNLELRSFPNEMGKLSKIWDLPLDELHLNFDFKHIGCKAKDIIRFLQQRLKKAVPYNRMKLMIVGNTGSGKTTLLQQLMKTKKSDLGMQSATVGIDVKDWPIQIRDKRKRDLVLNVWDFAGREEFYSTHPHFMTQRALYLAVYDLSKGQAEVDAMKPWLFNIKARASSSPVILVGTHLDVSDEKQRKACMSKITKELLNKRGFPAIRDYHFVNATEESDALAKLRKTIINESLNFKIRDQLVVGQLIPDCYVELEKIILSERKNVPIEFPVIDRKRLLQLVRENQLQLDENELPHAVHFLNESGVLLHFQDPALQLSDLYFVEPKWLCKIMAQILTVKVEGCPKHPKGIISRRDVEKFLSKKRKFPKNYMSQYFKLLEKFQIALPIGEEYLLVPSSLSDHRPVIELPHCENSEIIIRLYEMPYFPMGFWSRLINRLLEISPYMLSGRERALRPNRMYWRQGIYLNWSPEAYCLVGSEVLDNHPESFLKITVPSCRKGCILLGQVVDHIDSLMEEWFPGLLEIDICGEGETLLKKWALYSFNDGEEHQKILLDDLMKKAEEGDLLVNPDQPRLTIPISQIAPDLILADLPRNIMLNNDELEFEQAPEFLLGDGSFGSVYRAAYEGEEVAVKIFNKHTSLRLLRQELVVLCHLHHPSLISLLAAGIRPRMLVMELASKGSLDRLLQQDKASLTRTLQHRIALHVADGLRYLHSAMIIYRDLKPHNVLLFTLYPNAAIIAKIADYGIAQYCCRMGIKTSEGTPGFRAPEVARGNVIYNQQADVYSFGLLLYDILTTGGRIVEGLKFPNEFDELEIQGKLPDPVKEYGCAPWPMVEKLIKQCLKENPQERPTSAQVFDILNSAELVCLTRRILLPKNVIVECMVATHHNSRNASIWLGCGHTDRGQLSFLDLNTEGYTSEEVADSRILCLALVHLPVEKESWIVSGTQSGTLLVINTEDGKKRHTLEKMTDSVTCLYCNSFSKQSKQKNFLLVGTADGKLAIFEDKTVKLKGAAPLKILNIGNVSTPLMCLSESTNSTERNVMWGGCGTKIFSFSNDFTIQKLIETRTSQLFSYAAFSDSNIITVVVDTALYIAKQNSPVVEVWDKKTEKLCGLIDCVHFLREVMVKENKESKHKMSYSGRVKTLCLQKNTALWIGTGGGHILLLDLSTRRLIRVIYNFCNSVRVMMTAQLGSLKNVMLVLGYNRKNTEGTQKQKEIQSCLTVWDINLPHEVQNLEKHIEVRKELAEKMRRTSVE

IC50 [1] [nM]	IC50 [2] [nM]	IC50 [3] [nM]	Compound	further results
62	830	3	CCN1C(=O)c2ccccc2N(C)c2nc(Nc3ccc(N4CCN(C)CC4)cc3OC)ncc21	IC50 [4]: 1200 nM
378	1570	10	COc1cc(C(=O)NC2CCN(C)CC2)ccc1Nc1ncc2c(n1)N(C)c1ccccc1C(=O)N2CC(F)(F)F	–
8890	> 10000	80	COc1cc(NS(C)(=O)=O)ccc1Nc1ncc2c(n1)N(C)c1ccccc1C(=O)N2CC(F)(F)F	–
5	–	–	COc1cc(C(=O)N2CCN(C3CCN(C)CC3)CC2)ccc1Nc1ncc2c(n1)N(C)c1ccccc1C(=O)N2C	–
23	4600	36	CCN1C(=O)c2ccccc2N(C)c2nc(Nc3ccc(NS(C)(=O)=O)cc3OC)ncc21	–
35	–	37	Cc1cc(N2CCC(O)CC2)ccc1Nc1ncc2c(n1)N(C)c1ccccc1C(=O)N2C	–
14	520	2	CCN1C(=O)c2ccccc2N(C)c2nc(Nc3ccc(C(=O)NC4CCN(C)CC4)cc3OC)ncc21	IC50 [4]: 482 nM
683	7490	> 1000	COc1cc(NS(C)(=O)=O)ccc1Nc1ncc2c(n1)N(C)c1ccccc1C(=O)N2C(C)C	–
70	> 10000	> 1000	COc1cc(N2CCN(C)CC2)ccc1Nc1ncc2c(n1)N(C)c1ccccc1C(=O)N2	IC50 [4]: 1200 nM
16	–	104	COc1cc(N2CCN(C3CCN(C)CC3)CC2)ccc1Nc1ncc2c(n1)N(C)c1ccccc1C(=O)N2C	–
160	–	510	CC(C)Oc1cc(N2CCC(O)CC2)ccc1Nc1ncc2c(n1)N(C)c1ccccc1C(=O)N2C	–
–	–	2	CN1C(=O)c2ccccc2N(C)c2nc(Nc3ccc(NS(C)(=O)=O)cc3)ncc21	–
14.1	–	97	COc1cc(N2CCC(O)CC2)ccc1Nc1ncc2c(n1)N(C)c1ccccc1C(=O)N2C	–
23	–	52	COc1cc(N2CCNCC2)ccc1Nc1ncc2c(n1)N(C)c1ccccc1C(=O)N2C	–
6.1	–	111	CN1C(=O)c2ccccc2N(C)c2nc(Nc3cccc(S(N)(=O)=O)c3)ncc21	–
7	–	187	CN1C(=O)c2ccccc2N(C)c2nc(Nc3ccc(S(N)(=O)=O)cc3)ncc21	–
171	–	22	CCOc1cc(C(=O)N2CCC(N3CCN(C)CC3)CC2)ccc1Nc1ncc2c(n1)N(C1CCCC1)c1ccccc1C(=O)N2C	–
1900	1200	411	COc1cc(N2CCN(C)CC2)ccc1Nc1ncc2c(n1)N(C)c1ccccc1C(=O)N2C(C)C	–
331	2380	126	COc1cc(C(=O)NC2CCN(C)CC2)ccc1Nc1ncc2c(n1)N(C)c1ccccc1C(=O)N2C(C)C	–
–	–	> 5000	COc1cc(N2CCN(C)CC2)ccc1Nc1ncc2c(n1)N(C)c1ccc(C)cc1C(=O)N2CC(F)(F)F	–
5.9 to 6	125	3 to 16	COc1cc(NS(C)(=O)=O)ccc1Nc1ncc2c(n1)N(C)c1ccccc1C(=O)N2C	IC50 [4]: 276 nM
8.2 to 18	4170	1 to 4	COc1cc(C(=O)NC2CCN(C)CC2)ccc1Nc1ncc2c(n1)N(C)c1ccccc1C(=O)N2C	–
30	–	109	CN1C(=O)c2ccccc2N(C)c2nc(Nc3ccc(N4CCC(O)CC4)cc3)ncc21	–
31	–	11	COc1cc(N2CCOCC2)ccc1Nc1ncc2c(n1)N(C)c1ccccc1C(=O)N2C	–
46	–	716	CCOc1cc(N2CCC(O)CC2)ccc1Nc1ncc2c(n1)N(C)c1ccccc1C(=O)N2C	–
–	–	214	CC(C)Oc1cc(N2CCN(C)CC2)ccc1Nc1ncc2c(n1)N(C)c1ccccc1C(=O)N2CC(F)(F)F	–

Compound	IC50 [1] [nM]	IC50 [2] [nM]	IC50 [3] [nM]	further results
COc1cc(N2CCN(C)CC2)ccc1Nc1ncc2c(n1)N(Cc1ccccc1)c1ccccc1C(=O)N2C	141	–	4	–
COc1cc(N2CCN(C)CC2)ccc1Nc1ncc2c(n1)N(C1CCC1)c1ccccc1C(=O)N2C	97	–	14	IC50 [4]: 79 nM
COc1cc(N2CCN(C)CC2)ccc1Nc1nc(C)c2c(n1)N(C)c1ccccc1C(=O)N2C	501	–	> 2000	IC50 [4]: > 10000 nM
CCC(C)N1c2ccccc2C(=O)N(C)c2cnc(Nc3ccc(N4CCN(C)CC4)cc3OC)nc21 (stereo not given)	743	–	32	IC50 [4]: 222 nM
COc1cc(N2CCN(C)CC2)ccc1Nc1ncc2c(n1)N(C)c1ccc(C)cc1C(=O)N2C	928	–	> 2000	–
COc1cc(N2CCN(C)CC2)ccc1Nc1ncc2c(n1)N(C)c1ccc(Cl)cc1C(=O)N2C	1330	–	> 2000	–
COc1cc(N2CCN(C)CC2)ccc1Nc1ncc2c(n1)N(C1CCCC1)c1ccccc1C(=O)N2C	421	–	26	–
COc1cc(N2CCN(C)CC2)ccc1Nc1ncc2c(n1)N(C)c1cc(Cl)ccc1C(=O)N2C	3740	–	> 2000	–
CCN1c2ccccc2C(=O)N(C)c2cnc(Nc3ccc(N4CCN(C)CC4)cc3OC)nc21	57	–	154	–
COc1cc(N2CCN(C)CC2)ccc1Nc1ncc2c(n1)N(C)c1ccccc1C(=O)N2CC(F)(F)F	7000	> 10000	17	Activity (Homo sapiens [5]): inactive; Activity [6]: >=50 - 90%; AUC [7]: 1270 ng·h/mL; Activity (Homo sapiens [8]): inactive; t1/2 [9]: 2.09 h; Activity [10]: >=50 - 90%; clearance [11]: 26.3 mL/min/kg; IC50 ([4]; hela): 3350 nM
COc1cc(N2CCN(C)CC2)ccc1Nc1ncc2c(n1)N(C)c1ccccc1C(=O)N2C	29	888	11 to 16	–
COc1cc(N2CCN(C)CC2)ccc1Nc1ncc2c(n1)N(C(C)C)c1ccccc1C(=O)N2C	289	–	71	–
